Measured values from patent US6608086B2, “Dihydropyridines and new uses thereof” (Synaptic Pharmaceutical Corporation, priority 1993, dated 2003).
Counter-ions that a name gives are not always drawn. Like-named read-outs stand apart in the source and are kept apart here.

Columns and labels:
α2B receptor = biological target: T1, α2B receptor (Homo sapiens, UniProt P18089); assay: Competition binding, [3H]rauwolscine, human α2B receptor
T1 construct: host or cells: LM(tk-) cells, line L-NGC-α2B
T1 sequence (P18089 1-450): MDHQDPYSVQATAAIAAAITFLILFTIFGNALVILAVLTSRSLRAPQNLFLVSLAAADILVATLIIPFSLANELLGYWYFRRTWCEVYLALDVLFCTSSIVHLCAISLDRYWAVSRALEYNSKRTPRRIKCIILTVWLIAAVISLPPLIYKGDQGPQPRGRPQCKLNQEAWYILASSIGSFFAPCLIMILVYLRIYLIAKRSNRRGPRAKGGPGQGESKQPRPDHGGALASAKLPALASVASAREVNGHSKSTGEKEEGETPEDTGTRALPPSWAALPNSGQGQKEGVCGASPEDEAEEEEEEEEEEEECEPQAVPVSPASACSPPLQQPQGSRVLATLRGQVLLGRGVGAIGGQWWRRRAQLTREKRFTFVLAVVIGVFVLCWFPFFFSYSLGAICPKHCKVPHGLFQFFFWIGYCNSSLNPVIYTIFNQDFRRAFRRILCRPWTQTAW
Summary of the method: (§1)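 Filter-bound [3H]rauwolscine (0.5 nM) was measured after equilibrium competition with test antagonists on lysates of LM(tk−) cells stably transfected with each human α2 subtype. Buffer: 25 mM glycylglycine, pH 7.6 at room temperature; 10 μM phentolamine gave nonspecific binding.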

α2C receptor = biological target: T2, α2C receptor (Homo sapiens, UniProt P18825); assay: Competition binding, [3H]rauwolscine, human α2C receptor
T2 construct: host or cells: LM(tk-) cells, line L-α2C
T2 sequence (P18825 1-462): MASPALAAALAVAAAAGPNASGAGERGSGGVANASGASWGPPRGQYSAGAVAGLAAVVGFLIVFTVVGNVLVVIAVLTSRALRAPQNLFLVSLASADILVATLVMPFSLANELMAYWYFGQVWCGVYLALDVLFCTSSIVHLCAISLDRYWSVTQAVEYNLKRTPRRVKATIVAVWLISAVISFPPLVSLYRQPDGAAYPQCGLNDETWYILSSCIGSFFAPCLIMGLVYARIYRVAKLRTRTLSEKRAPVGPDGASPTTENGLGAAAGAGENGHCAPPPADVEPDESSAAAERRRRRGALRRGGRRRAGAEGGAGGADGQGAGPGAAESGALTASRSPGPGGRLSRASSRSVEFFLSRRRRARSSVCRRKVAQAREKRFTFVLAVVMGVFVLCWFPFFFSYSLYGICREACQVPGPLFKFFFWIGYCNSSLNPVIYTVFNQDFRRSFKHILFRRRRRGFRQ
Summary of the method: as §1

[1] = biological target: T3, α1C Human Adrenergic Receptor (Homo sapiens, UniProt P35348); assay: Radioligand binding, [3H]prazosin, cloned human α1C adrenergic receptor
T3 construct: The entire coding region of α1C (1401 bp); expressed in transfected cells
T3 sequence (P35348 1-466): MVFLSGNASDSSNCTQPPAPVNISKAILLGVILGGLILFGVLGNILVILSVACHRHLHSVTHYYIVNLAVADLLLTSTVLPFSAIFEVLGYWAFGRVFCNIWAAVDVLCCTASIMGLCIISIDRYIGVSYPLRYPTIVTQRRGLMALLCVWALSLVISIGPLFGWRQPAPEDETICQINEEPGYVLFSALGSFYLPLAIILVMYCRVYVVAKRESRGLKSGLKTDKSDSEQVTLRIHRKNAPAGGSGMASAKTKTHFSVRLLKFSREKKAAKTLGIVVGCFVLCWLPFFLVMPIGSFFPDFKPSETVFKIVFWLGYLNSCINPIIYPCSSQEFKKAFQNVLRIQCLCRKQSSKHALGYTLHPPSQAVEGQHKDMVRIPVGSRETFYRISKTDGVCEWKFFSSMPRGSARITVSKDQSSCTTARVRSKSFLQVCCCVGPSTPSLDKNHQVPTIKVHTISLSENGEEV
Summary of the method: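 Membranes from LM(tk−) cells stably expressing the cloned human α1C receptor were incubated with 0.5 nM [3H]prazosin at 37° C. for 20 min in 50 mM Tris-HCl, 1 mM MgCl2, 0.1% ascorbic acid, pH 7.5. Nonspecific binding was defined with 10 μM phentolamine, and bound ligand was separated by GF/B filtration.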

[2] = [3H]rauwolscine, LM(tk-) cell line L-NGC-α2B, SEM and n in lines below, read-out: pKi alpha-2 2b (converted)
[3] = [3H]rauwolscine, LM(tk-) cell line L-α2C, SEM and n in lines below, read-out: pKi alpha-2 2c (converted)
[4] = cloned human receptor in LM(tk-) cell membranes, SEM and n in lines below, read-out: pKi alpha-1 1c (converted)
[5] = PKi alpha-2 2b, [3H]rauwolscine, human receptor, LM(tk-) cell lysates, mean
[6] = PKi alpha-1 1c, cloned human receptor, LM(tk-) cell membranes, mean
[7] = [3H]rauwolscine, human receptor, LM(tk-) cell lysates, mean, read-out: PKi alpha-2 2b (converted)
[8] = [3H]rauwolscine, human receptor, LM(tk-) cell lysates, mean, read-out: PKi alpha-2 2c (converted)
[9] = cloned human receptor, LM(tk-) cell membranes, mean, read-out: PKi alpha-1 1c (converted)
[10] = [3H]rauwolscine, human α2B receptor, LM(tk-) cells, read-out: PKi alpha-2 2b (converted)
[11] = [3H]rauwolscine, human α2C receptor, LM(tk-) cells, read-out: PKi alpha-2 2c (converted)
[12] = cloned human α1C receptor, LM(tk-) cell membranes, read-out: PKi alpha-1 1c (converted)

SMILES	melting point	Ki (α2B receptor; [5])	Ki [1, 6]	Ki (α2C receptor; [8])	other results
COC(=O)C1=C(C)NC(C)=C(C(=O)NCCCN2CCC(c3ccccc3)CC2)C1c1ccc([N+](=O)[O-])cc1 (single isomer, unassigned; (+)) [(+)-45, 1,4-Dihydro-3-methoxycarbonyl-2,6-dimethyl-4-(4-nitrophenyl)-5-{N-[3-(4-phenylpiperidin-1-yl)propyl]}carboxamidopyridine hydrochloride hemihydrate]					Ki (α2B receptor; [2]): 91.2 nM; Ki (α2C receptor; [3]): 22.4 nM; Ki [1, 4]: 9.33 nM
COC(=O)C1=C(C)NC(C)=C(C(=O)NCCCN2CCC(c3ccccc3)CC2)C1c1ccc(C)cc1 (centres unmarked) [Example 31, 1,4-Dihydro-3-methoxycarbonyl-2,6-dimethyl-4-(4-methylphenyl)-5-(N-(3-(4-phenylpiperidin-1-yl)propyl)carboxamido)pyridine]	139 to 139.5 °C				Ki (α2B receptor; [2]): 138 nM; Ki (α2C receptor; [3]): 52.5 nM; Ki [1, 4]: 1.17 nM
COc1cc2c(c(OC)c1)CCN(CCCNC(=O)C1=C(c3ccoc3)NC(C)=C(C(N)=O)C1c1ccc([N+](=O)[O-])cc1)C2.Cl.O (centres unmarked) [Example 67]					pKi alpha-2 2b (α2B receptor; [3H]rauwolscine, LM(tk-) cell line L-NGC-α2B, SEM and n in lines below): 5.79; pKi alpha-2 2c (α2C receptor; [3H]rauwolscine, LM(tk-) cell line L-α2C, SEM and n in lines below): 7.00; pKi alpha-1 1c ([1]; cloned human receptor in LM(tk-) cell membranes, SEM and n in lines below): 6.48
CNC(=O)C1=C(C)NC(C)=C(C(=O)NCCCN2CCC(c3ccccc3)(c3ccccc3)CC2)C1c1ccc2c(c1)OCCO2 (centres unmarked) [Example 163]	115 to 116 °C	1700 nM	18.6 nM		Ki (α2C receptor; PKi alpha-2 2c, [3H]rauwolscine, human receptor, LM(tk-) cell lysates, mean): 1230 nM
CCC1=C(C(N)=O)C(c2ccc([N+](=O)[O-])cc2)C(C(=O)NCCCN2CCC(C(=O)OC)(c3ccccc3)CC2)=C(CCCCN=[N+]=[N-])N1 (centres unmarked) [Example 165, 2-(4-Azidobutyl)-3-{N-[3-(4-methoxycarbonyl-4-phenylpiperidin-1-yl)propyl]}carboxamido-5-carboxamido-6-ethyl-1,4-dihydro-4-(4-nitrophenyl)pyridine]	74 to 77 °C			1510 nM	Ki (α2B receptor; [7]): 1950 nM; Ki [1, 9]: 0.501 nM
CCC1=C(C(=O)NC)C(c2ccc([N+](=O)[O-])cc2)C(C(=O)NCCCN2CCC(c3ccccc3)(c3ccccc3)CC2)=C(CCCCN)N1 (centres unmarked) [Example 172, 2-(4-Aminobutyl)-6-ethyl-1,4-dihydro-5-(N-methyl)carboxamido-4-(4-nitrophenyl)-3-{N-[3-(4,4-diphenylpiperidin-1-yl)propyl]}carboxamidopyridine]	105 to 109 °C	3470 nM	2.82 nM	692 nM	
CCC1=C(C(=O)NC)C(c2ccc([N+](=O)[O-])cc2)C(C(=O)NCCCN2CCC(c3ccccc3)(c3ccccc3)CC2)=C(CCCCOC)N1 (centres unmarked) [Example 173, 6-Ethyl-1,4-dihydro-2-(4-methoxybutyl)-5-(N-methyl)carboxamido-4-(4-nitrophenyl)-3-{N-[3-(4,4-diphenylpiperidin-1-yl)propyl]}carboxamidopyridine]	98 to 102 °C	955 nM	3.98 nM	1480 nM	
CCC1=C(C(=O)NC)C(c2ccc([N+](=O)[O-])cc2)C(C(=O)NCCCN2CCC(C(=O)OC)(c3ccccc3)CC2)=C(CCCCOC)N1 (centres unmarked) [Example 174, 6-Ethyl-1,4-dihydro-2-(4-methoxybutyl)-3-{N-[3-(4-methoxycarbonyl-4-phenylpiperidin-1-yl)propyl]}carboxamido-5-(N-methyl)carboxamido-4-(4-nitrophenyl)pyridine]	71 to 74 °C			676 nM	Ki (α2B receptor; [7]): 955 nM; Ki [1, 9]: 4.07 nM
CC(=O)C1=C(C)NC(CCCCN)=C(C(=O)NCCCN2CCC(c3ccccc3)(c3ccccc3)CC2)C1c1ccc([N+](=O)[O-])cc1 (centres unmarked) [Example 176, 5-Acetyl-2-(4-aminobutyl)-1,4-dihydro-6-methyl-4-(4-nitrophenyl)-3-{N-[3-(4,4-diphenylpiperidin-1-yl)propyl]}carboxamidopyridine]	76 to 79 °C	1200 nM	3.72 nM	724 nM	
COC(=O)C1(c2ccccc2)CCN(CCCNC(=O)C2=C(CCCCN)NC(C)=C(C(C)=O)C2c2ccc([N+](=O)[O-])cc2)CC1 (centres unmarked) [Example 178, 5-Acetyl-2-(4-aminobutyl)-1,4-dihydro-3-{N-[3-(4-methoxycarbonyl-4-phenylpiperidin-1-yl)propyl]}carboxamido-6-methyl-4-(4-nitrophenyl) pyridine]	62 to 65 °C			398 nM	Ki (α2B receptor; [7]): 759 nM; Ki [1, 9]: 2.57 nM
CCC1=C(C(=O)NC)C(c2ccc([N+](=O)[O-])cc2)C(C(=O)NCCCN2CCC(C(=O)OC)(c3ccccc3)CC2)=C(CC)N1 (centres unmarked) [Example 179, 2,6-Diethyl-1,4-dihydro-3-{N-[3-(4-methoxycarbonyl-4-phenyl-piperidin-1-yl)propyl]}carboxamido-5-(N-methyl)carboxamido-4-(4-nitrophenyl)pyridine]					Ki (α2B receptor; PKi alpha-2 2b): 1860 nM; Ki (α2C receptor; PKi alpha-2 2c): 1450 nM; Ki [1, 9]: 3.31 nM
CC(=O)C1=C(C)NC(COCCN)=C(C(=O)NCCCN2CCC(c3ccccc3)(c3ccccc3)CC2)C1c1ccc([N+](=O)[O-])cc1 (centres unmarked) [Example 237, 5-Acetyl-2-((2-aminoethyl)oxy)methyl-1,4-dihydro-6-methyl-4-(4-nitro)phenyl 3-(N-(3-(4,4-diphenylpiperidin-1-yl)propyl)) carboxamidopyridine]		851 nM	2.63 nM	324 nM	
CCOC(=O)C1(c2ccccc2)CCN(CCCNC(=O)C2=C(COCC(F)(F)F)NC(C)=C(C(N)=O)C2c2ccc([N+](=O)[O-])cc2)CC1 (centres unmarked) [Example 243, 5-Carboxamido-3-(N-(3-(4-ethoxycarbonyl-4-phenylpiperidin-1yl)propyl))carboxamido-2-((2,2,2-trifluoroethyl)oxy)methyl-1,4dihydro-6-methyl-4-(4-nitro)phenylpyridine]					Ki (α2B receptor; [10]): 977 nM; Ki (α2C receptor; [11]): 1070 nM; Ki [1, 12]: 5.75 nM
COC(=O)C1(c2ccccc2)CCN(CCCNC(=O)C2=C(COCCN)NC(C)=C(C(C)=O)C2c2ccc(F)cc2)CC1 (centres unmarked) [Example 245, 5-Acetyl-2-((2-aminoethyl)oxy)methyl-4-(4-fluoro)phenyl-1,4-dihydro-3-(N-3-(4-methoxycarbonyl-4-phenylpiperidin-1-yl)propyl)carboxamido-6-methylpyridine]					Ki (α2B receptor; [10]): 2750 nM; Ki (α2C receptor; [11]): 316 nM; Ki [1, 12]: 5.01 nM
